Test results as given in patent US5436273A, “Psychoactive propargylamine derivatives used in the treatment of anxiety, psychotic states or aggression” (Lowchol Scientific, Inc., priority 1993, dated 1995).
Entries after “also recorded” stand apart in the source; their conditions may differ. Where two headings read alike, the source gives them in different places.

How the values were obtained:
[1] = test system: righting reflex / ethanol narcosis in mice; assay: Potentiation of sleeping time induced by ethanol in mice; format: in vivo, CD #1 mice; settings: for percentage of animals displaying a loss of the righting reflex: with ethanol
Procedure: 7. Potentiation of Sleeping Time Induced by Ethanol in Mice
This test was done with male CD #1 mice of 25-35 g. The mice are injected intraperitoneally (8 mice per dose). A subhypnotic dose of ethanol (12 ml/kg of 50% ethanol solution) is administered orally 30 minutes later.
The loss of the righting reflex is evaluated, for each animal, 30 minutes after the administration of the alcohol. It is considered that there is a potentialization of ethanol narcosis if the righting time exceeded 30 seconds.
The results which are reported in Table 7 are expressed in terms of the percentage of animals displaying a loss of the righting reflex versus the administered dose. Chlorpromazine (5 mg/kg i.p.) is used as a standard.

[2] = test system: exploratory behavior in rats; assay: Inhibition of exploratory behavior in rats (hole poking); format: in vivo, Sprague-Dawley rats; settings: rats
Procedure: 8. Inhibition of Exploratory Behavior in Rats (Hole Poking).
This test is done with Sprague-Dawley male rats of about 300 g. Activity is evaluated with a […] XYZ activity cage connected to a […] […] DCM-4. A perforated plate (16 holes of 2-5 cm diameter) is placed in the enclosure and on the activity case to register vertical activity. The number of times the rat placed his snout into the holes during a 10 minute period is recorded. The test was started 30 minutes after the interperitoneal injection of the compound to be studied.
The results which are reported in Table 8 are expressed in terms of the dose required to diminish by 50% the exploratory behavior, with reference to animals injected with the carrier only. Diazepam and buspirone are used as standards.

[3] = test system: aggressive behavior of combative mice; assay: Persistence of antiaggressive effect; format: in vivo; settings: 10 mg/kg i.p. daily for five days, FIG. 3
Source text: 12. Persistence of Antiaggressive Effect

[4] = test system: motor coordination (rotarod) in mice; settings: mouse, in vivo
[5] = Plasma concentration in combative mice as a function of time; format: in vivo; settings: 10 mg/kg i.p.
Procedure: A calibration curve is established using mouse blood plasma. Two samples are used for each concentration. The method used is as follows.
200 μl of plasma are taken and denaturated with 400 μl of acetonitrile. 500 μl of the clear liquid is taken.
A derivative is made with 50 μl of orthophthalaldehyde (0.05M) in a test tube and 25 μl of the solution is injected into a high performance liquid chromatography apparatus after 30 minutes.
3-Amino-4-pentyne is used as standard.
The following equation describes the calibration curve: […]
The concentration of compound N^o 3 in the plasma is given by the following equation: [formula] B. Evaluation in Vivo
The pharmacokinetic profile is established in combative mice.
The mice are placed together, in pairs, for 5 minutes. This pairing is performed 10, 25, 55, 85 and 115 minutes after the administration of compound N^o 3. One minute after each of the 5 minute periods of placing the animals together, three pairs of animals are anesthetized with ether and guillotined in order to determine the concentration of compound N^o 3 in the plasma. The plasma sample is prepared by centrifugation (16,000 G) of 800 μl of blood to which 50 μl of EDTA Na4 (0.1M) is added. The inhibition of aggressive behavior at the different times in which the animals are placed together and the number of pairs evaluated is shown in the following Table: […]

[6] = Effect on body temperature in mice; format: in vivo, CD #1 mice; settings: for Temp. Difference from Control: one hour
Procedure: 9. Effect on Body Temperature in Mice
Female CD #1 mice (20-30 g) are used. Rectal temperature is recorded before and one hour after s.c. administration of the compound to be studied (N=8/doses×4 doses). The solvent used is sterile water for intravenous injection.
The results which are reported in Table 9 are expressed in terms of the variation of temperature for different doses. Buspirone was tested on Sprague Dawley rats.

[7] = test system: spontaneous motor activity in rats; assay: Inhibition of spontaneous motor activity in rats; format: in vivo, Sprague Dawley rats; settings: for ED50: Rattus norvegicus, ip, 0.5 h, i.p., 30 minutes
Procedure: Two animals are studied simultaneously, one treated and one control. After a 2 hour period of acclimatization to the room, a first activity count of 10 minutes duration is perfomed. The compound to be studied is then administered i.p. and the spontaneous activity is reevaluated 30 minutes later over a period of 10 minutes.
5. Inhibition of Spontaneous Motor Activity in Rats
The method is the same as described above for mice, except that because of the size of the animals (Sprague Dawley rats; 300 g), the test and control animals are not evaluated simultaneously, but alternatively.

[8] = Acute toxicity test; settings: mouse, in vivo, ip
Procedure: CD #1 mice (20-30 g) are used for this test. The animals are individualy housed in glass beakers for a 2 hour period of acclimatization without food and water.

[9] = test system: aggressive behavior of combative mice; assay: Duration of antiaggressive effect; format: in vivo; settings: single dose 10 mg/kg i.p., FIG. 2
Source text: 11. Duration of Antiaggressive Effect

[10] = test system: conditioned avoidance response in rats; assay: Inhibition of conditioned avoidance response in rats; format: in vivo, Sprague Dawley rats
Source text: 6. Inhibition of Conditioned Avoidance Response in Rats
Male Sprague Dawley rats (200-250 g) are trained to avoid an electric foot shock, by continuously changing room with the appropriate visuals and auditory signals, in an automatic 2-way conditioned avoidance apparatus (Coulbourn Instrument Co.). Only the animals that perform at least a 70% avoidance (3 successive training sessions) are kept for the experiment.
The day of the experiment, the selected animals are submitted to a pre-treatment control session. The compound to be studied is then administered i.p. and the animals are placed back in the apparatus for evaluation 30 minutes later. Diazepam was used as a standard.

SMILES: C#CC(C)N (stereo not drawn) [Compound 3, 2-Amino-3-butyne]
- percentage of animals displaying a loss of the righting reflex ([1]; 10 mg/kg i.p.): 50%
- percentage of animals displaying a loss of the righting reflex ([1]; 30 mg/kg i.p.): 50%
- percentage of animals displaying a loss of the righting reflex ([1]; 100 mg/kg i.p.): 25%
- potentiation of ethanol (in words) ([1]; subhypnotic dose of ethanol, mice): active at t = 30 min; also recorded: potentiate the effect of a subhypnotic effect dose of ethanol
- ED50 ([2]; Rattus norvegicus, ip, 0.5 h, i.p., 30 minutes, read-out: dose required to diminish by 50% the exploratory behavior): 4.6 ± 2.6 mg/kg
- inhibition of exploratory behavior (in words) [2]: more potent, in this respect, than diazepam but they rapidly lose their ability to produce this effect after the first administration
- persistence of inhibitory effect on aggressive behavior (in words) [3]: also persists when the compound is administered on a daily basis
- neurotoxicity / motor activity (in words) [4]: much less neurotoxic than buspirone (rot TD50 =135 mg/kg p.o.) and diazepam
- elimination / plasma level (in words) ([5]; FIG. 1): elimination of compound N^o 3 is very rapid; also recorded: not detectable, by the method used, 90 minutes after the injection
- concentration at […] ([5]; mouse, plasma, ip, 15 min, N = 6, read-out: plasma concentration ± S.E.): 4800 ± 400 µM
- concentration at 0.5 h ([5]; mouse, plasma, ip, 30 min, N = 6, read-out: plasma concentration ± S.E.): 2000 ± 200 µM
- concentration at 1 h ([5]; mouse, plasma, ip, 60 min, N = 5, read-out: plasma concentration ± S.E.): 900 ± 200 µM
- concentration at 1.5 h ([5]; mouse, plasma, ip, 90 min, N = 6, read-out: plasma concentration ± S.E.): < 5 µM
- concentration at 2 h ([5]; mouse, plasma, ip, 120 min, N = 6, read-out: plasma concentration ± S.E.): < 5 µM
- Temp. Difference from Control ([6]; dose 10, s.c.): -2.6
- Temp. Difference from Control ([6]; dose 30, s.c.): -2.5
- Temp. Difference from Control ([6]; dose 100, s.c.): -4.1
- hypothermia (in words) ([6]; s.c.): slight, transient hypothermia comparable to that induced by buspirone
- inhibition of spontaneous motor activity (in words) [7]: of comparable activity in rats
- ED50 ([7]; read-out: ED50, clockwise revolutions): 4.1 ± 1.4 mg/kg
- ED50 ([7]; read-out: ED50, counterclockwise revolutions): 3.7 ± 1.7 mg/kg
- ED50 ([7]; read-out: ED50, horizontal activity): 4.2 ± 1.8 mg/kg
- ED50 ([7]; read-out: ED50, movement time): 5.5 ± 2.3 mg/kg
- ED50 ([7]; read-out: ED50, number of movements): 11.8 ± 7.9 mg/kg
- ED50 ([7]; read-out: ED50, number of stereotypic movements): 5.2 ± 2.4 mg/kg
- ED50 ([7]; read-out: ED50, stereotypy time): 4.2 ± 1.7 mg/kg
- ED50 ([7]; read-out: ED50, total distance): 4.9 ± 2 mg/kg
- LD50 [8]: 1370 mg/kg
- duration of inhibitory effect on aggressive behavior [9]: approximately 4 hours
- conditioned avoidance response, first exposure ([10]; 10 mg/kg i.p., first exposure): 3%
- conditioned avoidance response, re-exposed ([10]; 10 mg/kg i.p., re-exposed): 29%
- ED50 ([10]; Rattus norvegicus, ip, 0.5 h, calculated with repeated exposure, r^2 = 0.43): 21.5 ± 11.2 mg/kg
- inhibition of conditioned avoidance response (in words) ([10]; rats): very active at first; also recorded: much less active if re-; also recorded: inhibit conditioned avoidance in rats, but are less active than diazepam; also recorded: loss of activity in the case of compound N^o 3 after the first exposure to the drug; also recorded: does not seem to impair the animal's sensory discrimination at doses 2 to 3 times above that which produces a quieting effect with repeated exposure
